{
  "source": "patent US20080081788A1",
  "about": "“Diagnosis and treatment for immunoglobulin E (IgE) implicated disorders” (priority 2002, published 2008)",
  "key": {"[1]": {"assay_type": "in vivo, human", "settings": "seven days, compared with expt #1 and #2"}, "Myoglobin": {"tested_on": "Myoglobin", "assay_type": "in vivo, human", "settings": "for Myoglobin levels in saliva: ELISA titer, Normal 1800, Glucotrol 15 mg/day, LT-10 2 mg/day or both"}, "NGF": {"tested_on": "NGF", "assay_type": "in vivo, human", "settings": "for NGF levels in saliva: ELISA titer, Normal 1200, Glucotrol 15 mg/day, LT-10 2 mg/day or both"}, "IgE": {"tested_on": "IgE", "assay_type": "in vivo, human", "settings": "for IgE levels in saliva: ELISA titer, Normal 16200, Glucotrol 15 mg/day, LT-10 2 mg/day or both"}, "Insulin": {"tested_on": "Insulin", "assay_type": "in vivo, human", "parameters": "Insulin levels in saliva: unit not given here", "settings": "for Insulin levels in saliva: ELISA titer, Normal 600, Glucotrol 15 mg/day, LT-10 2 mg/day or both"}, "[2]": {"settings": "in vivo"}},
  "note": "Read-outs that look alike come from different tables or passages of the source. Ends that are not written are not given here.",
  "data": [
    {"compound": "Cc1cnc(C(=O)NCCc2ccc(S(=O)(=O)NC(=O)NC3CCCCC3)cc2)cn1", "note": "[Glucotrol]", "values": [
      {"measurement": "effect on glucose level, in words", "setting": "[1]", "value": "did not make appreciable difference"},
      {"measurement": "Myoglobin levels in saliva", "setting": "Myoglobin; Day 1", "value": 1800},
      {"measurement": "Myoglobin levels in saliva", "setting": "Myoglobin; Day 2", "value": 3600},
      {"measurement": "Myoglobin levels in saliva", "setting": "Myoglobin; Day 3", "value": 3600},
      {"measurement": "Myoglobin levels in saliva", "setting": "Myoglobin; Day 4", "value": 2700},
      {"measurement": "Myoglobin levels in saliva", "setting": "Myoglobin; Day 5", "value": 2700},
      {"measurement": "Myoglobin levels in saliva", "setting": "Myoglobin; Day 6", "value": 2700},
      {"measurement": "Myoglobin levels in saliva", "setting": "Myoglobin; Day 7", "value": 3500},
      {"measurement": "myoglobin level at completion point (FIG. 1)", "setting": "Myoglobin; end of seven days, times the normal level", "value": "increased the level of myoglobin"},
      {"measurement": "effect on myoglobin levels in saliva, in words", "setting": "Myoglobin; treatment for seven days", "value": "contributes in increasing myoglobin levels"},
      {"measurement": "NGF levels in saliva", "setting": "NGF; Day 1", "value": 2700},
      {"measurement": "NGF levels in saliva", "setting": "NGF; Day 2", "value": 8100},
      {"measurement": "NGF levels in saliva", "setting": "NGF; Day 3", "value": 5400},
      {"measurement": "NGF levels in saliva", "setting": "NGF; Day 4", "value": 5400},
      {"measurement": "NGF levels in saliva", "setting": "NGF; Day 5", "value": 2700},
      {"measurement": "NGF levels in saliva", "setting": "NGF; Day 6", "value": 2700},
      {"measurement": "NGF levels in saliva", "setting": "NGF; Day 7", "value": 5400},
      {"measurement": "effect on NGF levels in saliva, in words", "setting": "NGF; treatment for seven days", "value": "perhaps increases NGF levels"},
      {"measurement": "IgE levels in saliva", "setting": "IgE; Day 1", "value": 145800},
      {"measurement": "IgE levels in saliva", "setting": "IgE; Day 2", "value": 148600},
      {"measurement": "IgE levels in saliva", "setting": "IgE; Day 3", "value": 145800},
      {"measurement": "IgE levels in saliva", "setting": "IgE; Day 4", "value": 148600},
      {"measurement": "IgE levels in saliva", "setting": "IgE; Day 5", "value": 148600},
      {"measurement": "IgE levels in saliva", "setting": "IgE; Day 6", "value": 145800},
      {"measurement": "IgE levels in saliva", "setting": "IgE; Day 7", "value": 145800},
      {"measurement": "effect on IgE levels in saliva, in words", "setting": "IgE; treatment for seven days", "value": "does not contribute in lowering IgE levels"},
      {"measurement": "Insulin levels in saliva", "setting": "Insulin; Day 1", "value": 1200},
      {"measurement": "Insulin levels in saliva", "setting": "Insulin; Day 2", "value": 800},
      {"measurement": "Insulin levels in saliva", "setting": "Insulin; Day 3", "value": 800},
      {"measurement": "Insulin levels in saliva", "setting": "Insulin; Day 4", "value": 900},
      {"measurement": "Insulin levels in saliva", "setting": "Insulin; Day 5", "value": 750},
      {"measurement": "Insulin levels in saliva", "setting": "Insulin; Day 6", "value": 800},
      {"measurement": "Insulin levels in saliva", "setting": "Insulin; Day 7", "value": 900},
      {"measurement": "effect on Insulin levels in saliva, in words", "setting": "Insulin; treatment for seven days", "value": "contributes m lowering Insulin levels"}
    ]},
    {"compound": "LKAMDPTPPL [LT-10]", "values": [
      {"measurement": "side effects", "setting": "[2]", "value": "no observable side effects"}
    ]}
  ]
}
